Experimental data reported in PMC8262356, “SLC26A6-selective inhibitor identified in a small-molecule screen blocks fluid absorption in small intestine” (JCI Insight, 2021).

Columns and labels:
[1] = tested on: mouse midjejunal closed loops; assay: Closed midjejunal loop fluid absorption; type: in vivo; conditions: 10 μM luminal, 30 minutes
Procedure: For fluid absorption studies in small intestine, mice were given free access to 5% dextrose in water but not solid food for 24 hours before experiments. Closed midjejunal and ileal loops were prepared and isolated as described previously ([29]). Mice were anesthetized with isoflurane, and body temperature was maintained during surgery at 36°C–38°C using a heating pad. A small abdominal incision was made to expose small intestine for isolation of 3–4 closed small intestinal loops (jejunum or ileum, length 2–3 cm) with sutures. Loops were injected with 100 μL PBS (pH 7.4, 137 mM NaCl, 2.7 mM KCl, 8 mM Na2HPO4, 1.8 mM KH2PO4, 1 mM CaCl2, 0.5 mM MgCl2) containing 30 μM PAT1inh-B01, 10 μM DRAinh-A270, or 10 μM tenapanor (MedChemExpress) (or vehicle, 0.1% DMSO in PBS). In some experiments, 30 μM PAT1inh-B01 and 10 μM DRAinh-A270 were used together. In some experiments to rule out effects of sodium-dependent phosphate transport, the loop lumen contained HEPES-buffered saline (pH 7.4, 137 mM NaCl, 4.5 mM KCl, 10 mM HEPES, 1 mM CaCl2, 0.5 mM MgCl2). […] Intestinal loops were removed at 0 and 30 minutes (in separate mice), and loop length and weight were measured to quantify fluid absorption. […] In some experiments, loop fluid was emptied with a syringe, and pH was measured immediately using AB15 pH meter after brief centrifugation at 2000 g for 5 minutes at 4°C.

mouse ileal closed loops = assay: Closed ileal loop fluid absorption; type: in vivo; conditions: 10 μM luminal, 30 minutes, PBS
Procedure: (§1) For fluid absorption studies in small intestine, mice were given free access to 5% dextrose in water but not solid food for 24 hours before experiments. Closed midjejunal and ileal loops were prepared and isolated as described previously ([29]). Mice were anesthetized with isoflurane, and body temperature was maintained during surgery at 36°C–38°C using a heating pad. A small abdominal incision was made to expose small intestine for isolation of 3–4 closed small intestinal loops (jejunum or ileum, length 2–3 cm) with sutures. Loops were injected with 100 μL PBS (pH 7.4, 137 mM NaCl, 2.7 mM KCl, 8 mM Na2HPO4, 1.8 mM KH2PO4, 1 mM CaCl2, 0.5 mM MgCl2) containing 30 μM PAT1inh-B01, 10 μM DRAinh-A270, or 10 μM tenapanor (MedChemExpress) (or vehicle, 0.1% DMSO in PBS). In some experiments, 30 μM PAT1inh-B01 and 10 μM DRAinh-A270 were used together. In some experiments to rule out effects of sodium-dependent phosphate transport, the loop lumen contained HEPES-buffered saline (pH 7.4, 137 mM NaCl, 4.5 mM KCl, 10 mM HEPES, 1 mM CaCl2, 0.5 mM MgCl2). The abdominal incision was closed with sutures, and mice were allowed to recover from anesthesia. Intestinal loops were removed at 0 and 30 minutes (in separate mice), and loop length and weight were measured to quantify fluid absorption. In parallel experiments, CF mice were used and loop studies were done as described above. In some experiments, loop fluid was emptied with a syringe, and pH was measured immediately using AB15 pH meter after brief centrifugation at 2000 g for 5 minutes at 4°C.

[2] = tested on: ileal closed loops in cystic fibrosis (CF) mice (homozygous F508del); assay: Closed ileal loop fluid absorption in CF mice; type: in vivo, mouse; conditions: 10 μM luminal
Procedure: as §1

[3] = tested on: mouse distal colonic closed loops; assay: Closed distal colonic loop fluid absorption; type: in vivo; conditions: 10 μM luminal
Procedure: For fluid absorption studies in colon, mice were given free access to 5% dextrose in water but not solid food for 48 hours. Mice were treated with 500 μL mineral oil twice a day rectally (final dose 16 h before surgery) during this period to evacuate the colon. Closed distal colonic loops (length 1.5–2 cm, 1 loop per mouse) were isolated as described previously ([7]). Loops were injected with 100 μL PBS with 30 μM PAT1inh-B01, 10 μM DRAinh-A270, or 10 μM tenapanor (or vehicle). In some experiments, 30 μM PAT1inh-B01 and 10 μM DRAinh-A270 were used together. Colonic loops were removed at 0 and 60 minutes (in separate mice), and loop length and weight were measured to quantify fluid absorption.

[4] = tested on: mouse midjejunal closed loops; set-up: method as in PMID 30046015; conditions: 10 μM; cited from earlier work
PAT1 (murine slc26a6) = biological target: T1, PAT1 (murine slc26a6) (Mus musculus, UniProt Q8CIW6); assay: PAT1-mediated Cl-/I- exchange, YFP fluorescence quenching in FRT cells; type: cell-based; conditions: for effect on PAT1-mediated Cl-/I- exchange: 100 μM agonist
T1 construct: host or cells: Fischer rat thyroid (FRT) cells, lentiviral transduction (pLVX-IRES-mCherry-slc26a6), clonal line FRT-YFP-slc26a6
T1 sequence (Q8CIW6 24-758 limits assumed): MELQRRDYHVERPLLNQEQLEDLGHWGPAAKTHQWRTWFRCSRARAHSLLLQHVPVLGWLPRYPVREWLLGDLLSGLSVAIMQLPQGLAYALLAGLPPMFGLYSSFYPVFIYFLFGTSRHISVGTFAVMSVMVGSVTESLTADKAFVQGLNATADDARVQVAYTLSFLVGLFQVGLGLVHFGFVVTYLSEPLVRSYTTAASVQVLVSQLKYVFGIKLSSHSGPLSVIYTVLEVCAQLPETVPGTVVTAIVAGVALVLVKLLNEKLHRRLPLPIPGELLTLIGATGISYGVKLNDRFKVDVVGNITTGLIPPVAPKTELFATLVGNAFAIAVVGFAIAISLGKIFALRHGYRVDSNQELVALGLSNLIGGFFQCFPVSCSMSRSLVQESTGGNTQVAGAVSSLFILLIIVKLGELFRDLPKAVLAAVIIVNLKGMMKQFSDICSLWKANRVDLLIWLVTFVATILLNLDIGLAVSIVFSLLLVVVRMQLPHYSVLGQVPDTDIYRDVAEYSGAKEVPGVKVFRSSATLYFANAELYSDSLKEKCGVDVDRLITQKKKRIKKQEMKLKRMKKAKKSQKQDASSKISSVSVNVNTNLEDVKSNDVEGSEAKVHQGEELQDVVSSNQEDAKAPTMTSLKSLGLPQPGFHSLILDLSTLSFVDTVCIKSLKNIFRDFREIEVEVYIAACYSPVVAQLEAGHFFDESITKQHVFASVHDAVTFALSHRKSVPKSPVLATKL
Procedure: A small-molecule screen was developed to identify PAT1 inhibitors utilizing transfected FRT cells expressing PAT1 (murine slc26a6) together with a halide-sensing cytoplasmic YFP (Figure 1A). Adherent cells in a 96-well format were subjected to an inward gradient of I^– to drive exchange of I^– for Cl^– and consequent quenching of the YFP fluorescence signal.
A collection of approximately 50,000 diverse, drug-like synthetic small molecules (ChemDiv) was screened at a concentration of 25 μM using a Beckman Coulter BioMek FX liquid handling platform with FLUOstar OMEGA plate readers (BMG Labtech). FRT-YFP-slc26a6 cells were plated in 96-well black-walled, clear-bottom plates (Corning Life Sciences) at a density of 20,000 cells/well and cultured for 48 hours until confluent. Cells were washed twice in PBS and incubated for 10 minutes prior to assay in 100 μl PBS containing test compounds. For assay of slc26a6 function, baseline cellular fluorescence was measured for 2 seconds, after which 100 μl NaI-substituted PBS (140 mM NaCl replaced by 140 mM NaI) was added by syringe pump to drive Cl^–/I^– exchange. The initial rate of Cl^–/I^– exchange was determined by single exponential regression of the fluorescence time course. All assay plates contained wells with negative (1% DMSO) and positive (500 μM niflumic acid) controls. For structure-activity relationship studies, analogs of active compounds were purchased from ChemDiv.

[5] = tested on: loperamide-induced constipation in mice; assay: Loperamide model of constipation; type: in vivo, mouse; conditions: 10 mg/kg, oral, stool collected over 3 hours
Procedure: Wild-type CD1 mice were administered loperamide (0.3 mg/kg, intraperitoneally) in PBS containing 5% ethanol (0.1 mg/mL final concentration) to induce constipation ([9], [30]). PAT1inh-B01 and DRAinh-A270, individually or together (10 mg/kg each, in saline containing 5% DMSO and 10% Kolliphor HS 15), or vehicle control were administered by oral gavage 1 hour before loperamide. After loperamide injection mice were placed individually in metabolic cages with free access to food and water. Stool samples were collected for 3 hours, and total stool weight and number of fecal pellets were quantified. To measure stool water content, stool samples were dried at 80°C for 24 hours and water content was calculated as follows: (wet weight – dry weight)/wet weight ([9], [30]).

DRA = DRA inhibition potency comparison; conditions: vs DRAinh-A250

SMILES	inhibition of fluid absorption (decrease in loop weight-to-length ratio) [1]	effect on ileal fluid absorption (loop weight-to-length ratio) (mouse ileal closed loops)	effect on fluid absorption from ilea of CF mice [2]	effect on colonic fluid absorption (loop weight-to-length ratio) [3]	effect on PAT1-mediated Cl-/I- exchange (PAT1 (murine slc26a6))	other results
CN1Cc2c(Cl)cc(Cl)cc2[C@H](c2cccc(S(=O)(=O)NCCOCCOCCNC(=O)NCCCCNC(=O)NCCOCCOCCNS(=O)(=O)c3cccc([C@@H]4CN(C)Cc5c(Cl)cc(Cl)cc54)c3)c2)C1 [tenapanor]	comparable	comparable	completely blocked	did not inhibit		
Cc1c(CC(=O)O)c(=O)oc2c(C)c(OCc3cccc(Br)c3)ccc12 [DRAinh-A250]						effect on fluid absorption in closed midjejunal loops [4]: did not significantly affect
Nc1nc2c(nc(Br)n2[C@@H]2O[C@@H]3COP(=O)(O)O[C@H]3[C@H]2O)c(=O)[nH]1 [8-Br-cGMP, reference compound]					did not significantly affect	
Cc1c(CC(=O)O)c(=O)oc2c(C)c(OCc3cccc(I)c3)ccc12 [DRAinh-A270]	approximately 50%	did not inhibit	no effect	completely prevented		effect on number of pellets [5]: increased; effect on stool water content [5]: normalized; effect on stool weight [5]: increased; potency as DRA inhibitor relative to DRAinh-A250 (DRA): 5 fold
Nc1ncnc2c1ncn2[C@@H]1O[C@H](COP(=O)(O)OP(=O)(O)OP(=O)(O)O)[C@@H](O)[C@H]1O [ATP, reference compound]					did not significantly affect	
O=C(O)c1cccnc1Nc1cccc(C(F)(F)F)c1 [niflumic acid, reference compound]						IC50 (PAT1 (murine slc26a6); FRT cells expressing PAT1 and YFP, read-out: IC50, inhibition of PAT1-mediated Cl-/I- exchange): 200 µM
